Laboratory results published in the NIST ThermoML archive (doi:10.1016/j.jct.2018.07.023).
Several values for one entry are separate records, joined by “and”; a condition that tells them apart may be missing. Identical values can stand only once.

Legend:
[1] = Molar enthalpy of transition or fusion; details: Crystal; DSC
[2] = molar enthalpy of vaporization or sublimation; details: Static calorimetry

COc1cc(C=O)ccc1O [vanillin]
Details	molar enthalpy [kcal/mol]	vapor or sublimation pressure
303.13 K, Crystal, Calculated from knudsen effusion weight loss	–	6.6e-05 kPa and 6.5e-05 kPa
305.32 K, Crystal, Calculated from knudsen effusion weight loss	–	8.9e-05 kPa and 8.8e-05 kPa
307.19 K, Crystal, Calculated from knudsen effusion weight loss	–	0.000112 kPa and 0.000113 kPa and 0.000114 kPa
309.13 K, Crystal, Calculated from knudsen effusion weight loss	–	0.000144 kPa and 0.000142 kPa and 0.000145 kPa
311.35 K, Crystal, Calculated from knudsen effusion weight loss	–	0.000185 kPa and 0.000182 kPa and 0.000187 kPa
313.2 K, Crystal, Calculated from knudsen effusion weight loss	–	0.000235 kPa and 0.000234 kPa and 0.000236 kPa
315.11 K, Crystal, Calculated from knudsen effusion weight loss	–	0.000292 kPa and 0.00029 kPa and 0.000294 kPa
317.29 K, Crystal, Calculated from knudsen effusion weight loss	–	0.000384 kPa and 0.000383 kPa
319.19 K, Crystal, Calculated from knudsen effusion weight loss	–	0.000472 kPa and 0.000474 kPa and 0.000478 kPa
320.95 K, Crystal, Closed cell (Static) method	–	0.00058 kPa
321.11 K, Crystal, Calculated from knudsen effusion weight loss	–	0.000597 kPa and 0.000586 kPa and 0.000599 kPa
322.92 K, Crystal, Closed cell (Static) method	–	0.00072 kPa
323.29 K, Crystal, Calculated from knudsen effusion weight loss	–	0.000759 kPa and 0.00075 kPa and 0.000765 kPa
324.92 K, Metastable liquid, Closed cell (Static) method	–	0.00192 kPa
324.98 K, Crystal, Closed cell (Static) method	–	0.00092 kPa
325.2 K, Crystal, Calculated from knudsen effusion weight loss	–	0.000955 kPa and 0.000953 kPa and 0.00094 kPa
326.9 K, Crystal, Closed cell (Static) method	–	0.00114 kPa
326.91 K, Metastable liquid, Closed cell (Static) method	–	0.00226 kPa
328.87 K, Metastable liquid, Closed cell (Static) method	–	0.00268 kPa
328.94 K, Crystal, Closed cell (Static) method	–	0.00143 kPa
330.87 K, Metastable liquid, Closed cell (Static) method	–	0.00316 kPa
330.89 K, Crystal, Closed cell (Static) method	–	0.00175 kPa
332.83 K, Metastable liquid, Closed cell (Static) method	–	0.00373 kPa
332.87 K, Crystal, Closed cell (Static) method	–	0.00215 kPa
334.8 K, Metastable liquid, Closed cell (Static) method	–	0.00439 kPa
334.84 K, Crystal, Closed cell (Static) method	–	0.00266 kPa
336.81 K, Metastable liquid, Closed cell (Static) method	–	0.00517 kPa
336.83 K, Crystal, Closed cell (Static) method	–	0.0033 kPa
338.81 K, Metastable liquid, Closed cell (Static) method	–	0.00609 kPa
338.83 K, Crystal, Closed cell (Static) method	–	0.00407 kPa
340.8 K, Metastable liquid, Closed cell (Static) method	–	0.00717 kPa
340.83 K, Crystal, Closed cell (Static) method	–	0.00502 kPa
342.78 K, Metastable liquid, Closed cell (Static) method	–	0.00834 kPa
342.8 K, Crystal, Closed cell (Static) method	–	0.0061 kPa
344.77 K, Crystal, Closed cell (Static) method	–	0.00747 kPa
344.79 K, Metastable liquid, Closed cell (Static) method	–	0.00978 kPa
346.69 K, Metastable liquid, Closed cell (Static) method	–	0.01123 kPa
346.73 K, Crystal, Closed cell (Static) method	–	0.00911 kPa
348.72 K, Crystal, Closed cell (Static) method	–	0.01103 kPa
348.73 K, Metastable liquid, Closed cell (Static) method	–	0.01314 kPa
350.68 K, Metastable liquid, Closed cell (Static) method	–	0.01523 kPa
350.7 K, Crystal, Closed cell (Static) method	–	0.01345 kPa
352.63 K, Metastable liquid, Closed cell (Static) method	–	0.01755 kPa
354.6 K, Metastable liquid, Closed cell (Static) method	–	0.02014 kPa
356.63 K, Closed cell (Static) method, Liquid	–	0.02334 kPa
358.57 K, Closed cell (Static) method, Liquid	–	0.02665 kPa
360.48 K, Closed cell (Static) method, Liquid	–	0.03073 kPa
362.45 K, Closed cell (Static) method, Liquid	–	0.03517 kPa
364.45 K, Closed cell (Static) method, Liquid	–	0.04012 kPa
366.47 K, Closed cell (Static) method, Liquid	–	0.04555 kPa
368.43 K, Closed cell (Static) method, Liquid	–	0.05205 kPa
370.37 K, Closed cell (Static) method, Liquid	–	0.05931 kPa
372.38 K, Closed cell (Static) method, Liquid	–	0.06765 kPa
374.32 K, Closed cell (Static) method, Liquid	–	0.07665 kPa
376.51 K, Closed cell (Static) method, Liquid	–	0.08673 kPa
378.22 K, Closed cell (Static) method, Liquid	–	0.09764 kPa
380.28 K, Closed cell (Static) method, Liquid	–	0.1104 kPa
382.26 K, Closed cell (Static) method, Liquid	–	0.1243 kPa
[2], 298.15 K, Crystal	23.8	–
[2], 375.81 K, Liquid	17.9	–

Details	Normal melting temperature [°C]
Crystal, DTA	82.6

Details	Molar enthalpy of transition or fusion [kcal/mol]
[1]	5.47
